From patent publication US10023590B2, “Substituted pyridine compounds having herbicidal activity” (BASF SE, priority 2014, dated 2018)

Experiments:
Format in all cases: in vivo
Ambrosia artemisiifolia = assay: Greenhouse post-emergence herbicidal activity, AMBEL; details: scale 0 to 100
Description: (§1) The culture containers used were plastic flowerpots containing loamy sand with approximately 3.0% of humus as the substrate. The seeds of the test plants were sown separately for each species.
(§2) For the post-emergence treatment, the test plants were first grown to a height of 3 to 15 cm, depending on the plant habit, and only then treated with the active ingredients which had been suspended or emulsified in water. For this purpose, the test plants were either sown directly and grown in the same containers, or they were first grown separately as seedlings and transplanted into the test containers a few days prior to treatment.
(§3) Depending on the species, the plants were kept at 10-25° C. or 20-35° C., respectively.
(§4) The test period extended over 2 to 4 weeks. During this time, the plants were tended, and their response to the individual treatments was evaluated.
(§5) Evaluation was carried out using a scale from 0 to 100. 100 means no emergence of the plants, or complete destruction of at least the aerial moieties, and 0 means no damage, or normal course of growth. A good herbicidal activity is given at values of at least 70 and a very good herbicidal activity is given at values of at least 85.

Zea mays = assay: Greenhouse post-emergence herbicidal activity on crop ZEAMX (corn, maize); design: key: 0 = no damage/normal growth, 100 = no emergence or complete destruction
Description: as §1, §2, §3, §4, §5

Echinocloa crus-galli = assay: Greenhouse post-emergence herbicidal activity, ECHCG; details: Echinochloa crus-galli, ECHCG; for pest or weed control at 2000 g/ha: 2 kg/ha, scale 0 to 100, read-out: Herbicidal activity
Description: as §1, §2, §3, §4, §5

Chenopodium album = assay: Greenhouse post-emergence herbicidal activity, CHEAL; details: scale 0 to 100; for pest or weed control at 31 g/ha: 0.031 kg/ha; for pest or weed control at 125 g/ha: 0.125 kg/ha; for pest or weed control at 63 g/ha: 0.063 kg/ha
Description: as §1, §2, §3, §4, §5

Stellaria media = assay: Greenhouse post-emergence herbicidal activity, STEME; details: scale 0 to 100
Description: as §1, §2, §3, §4, §5

Amaranthus retroflexus = assay: Greenhouse post-emergence herbicidal activity, AMARE; details: AMARE; for pest or weed control at 2000 g/ha: 2 kg/ha, scale 0 to 100, read-out: Herbicidal activity
Description: as §1, §2, §3, §4, §5

Setaria viridis = assay: Greenhouse post-emergence herbicidal activity, SETVI; details: 2 kg/ha, scale 0 to 100
Description: as §1, §2, §3, §4, §5

Veronica arvensis = assay: Greenhouse post-emergence herbicidal activity, VERAR; details: scale 0 to 100
Description: as §1, §2, §3, §4, §5

Oryza sativa = assay: Greenhouse post-emergence herbicidal activity on crop ORYSA (rice)
Description: as §1, §2, §3, §4, §5

Kochia scoparia = assay: Greenhouse post-emergence herbicidal activity, KCHSC; details: scale 0 to 100
Description: as §1, §2, §3, §4, §5

Setaria faberi = assay: Greenhouse post-emergence herbicidal activity, SETFA; details: scale 0 to 100
Description: as §1, §2, §3, §4, §5

Eriochloa villosa = assay: Greenhouse post-emergence herbicidal activity, ERBVI; details: 0.031 kg/ha, scale 0 to 100
Description: as §1, §2, §3, §4, §5

Abutilon theophrasti = assay: Greenhouse post-emergence herbicidal activity, ABUTH; details: ABUTH; for pest or weed control at 2000 g/ha: 2 kg/ha, scale 0 to 100, read-out: Herbicidal activity
Description: as §1, §2, §3, §4, §5

Erigeron canadensis = assay: Greenhouse post-emergence herbicidal activity, ERICA
Description: as §1, §2, §3, §4, §5

Cirsium arvense = assay: Greenhouse post-emergence herbicidal activity, CIRAR; details: CIRAR; for pest or weed control at 125 g/ha: 0.125 kg/ha
Description: as §1, §2, §3, §4, §5

Polygonum persicaria = assay: Greenhouse post-emergence herbicidal activity, POLPE; details: 0.063 kg/ha, scale 0 to 100
Description: as §1, §2, §3, §4, §5

Capsella bursa-pastoris = assay: Greenhouse post-emergence herbicidal activity, CAPBP; details: 0.063 kg/ha, scale 0 to 100
Description: as §1, §2, §3, §4, §5

Digitaria sanguinalis = assay: Greenhouse post-emergence herbicidal activity, DIGSA; details: scale 0 to 100
Description: as §1, §2, §3, §4, §5

[1] = ZEAMX (corn, crop), 0.031 kg/ha, scale 0 to 100
[2] = ZEAMX (corn, crop), 0.063 kg/ha, scale 0 to 100
[3] = ZEAMX (corn, crop), 0.125 kg/ha, scale 0 to 100
[4] = ORYSA (rice, crop), 0.031 kg/ha, scale 0 to 100
[5] = ORYSA (rice, crop), 0.063 kg/ha, scale 0 to 100
[6] = ORYSA (rice, crop), 0.125 kg/ha, scale 0 to 100

Row | SMILES | Herbicidal activity (Zea mays; [1]) | Herbicidal activity (Zea mays; [2]) | Herbicidal activity (Zea mays; [3]) | pest or weed control at 31 g/ha (Chenopodium album) [%] | pest or weed control at 125 g/ha (Chenopodium album) [%] | pest or weed control at 2000 g/ha (Amaranthus retroflexus) [%] | Herbicidal activity (Setaria viridis) | Herbicidal activity (Oryza sativa; [4]) | Herbicidal activity (Oryza sativa; [5]) | Herbicidal activity (Oryza sativa; [6]) | pest or weed control at 63 g/ha (Chenopodium album) [%] | pest or weed control at 31 g/ha (Amaranthus retroflexus; 0.031 kg/ha, scale 0 to 100) [%] | pest or weed control at 63 g/ha (Amaranthus retroflexus; 0.063 kg/ha, scale 0 to 100) [%] | pest or weed control at 125 g/ha (Amaranthus retroflexus; 0.125 kg/ha, scale 0 to 100) [%] | pest or weed control at 2000 g/ha (Abutilon theophrasti) [%] | other results
1 | Cc1c(C2=C(O)c3ncccc3C(C)(C)S2(=O)=O)cccc1N(C)S(C)(=O)=O [I-14, N-[3-(8-hydroxy-5,5-dimethyl-6,6-dioxo-thiopyrano[4,3-b]pyridin-7-yl)-2-methyl-phenyl]-N-methyl-methanesulfonamide] | 15 | 20 | 35 | 98 | 100 | 100 | 100 | 0 | 0 | 10 |  |  |  |  |  | Herbicidal activity (Ambrosia artemisiifolia; 0.063 kg/ha): 100; Herbicidal activity (Ambrosia artemisiifolia; 0.125 kg/ha): 100; pest or weed control at 2000 g/ha (Echinocloa crus-galli): 98%; Herbicidal activity (Stellaria media; 0.125 kg/ha): 100; Herbicidal activity (Veronica arvensis; 0.031 kg/ha): 100; Herbicidal activity (Veronica arvensis; 0.063 kg/ha): 100; Herbicidal activity (Kochia scoparia; 0.031 kg/ha): 95; Herbicidal activity (Kochia scoparia; 0.063 kg/ha): 100
2 | CN(c1c(Cl)ccc(C2=C(O)c3ncccc3C(C)(C)S2(=O)=O)c1Cl)S(=O)(=O)C1CC1 [I-28, N-[2,6-dichloro-3-(8-hydroxy-5,5-dimethyl-6,6-dioxo-thiopyrano[4,3-b]pyridin-7-yl)phenyl]-N-methyl-cyclopropanesulfonamide] | 20 | 30 |  | 98 | 98 |  |  |  |  |  | 98 | 98 | 98 | 98 |  | pest or weed control at 63 g/ha (Echinocloa crus-galli; 0.063 kg/ha, scale 0 to 100): 98%; pest or weed control at 125 g/ha (Echinocloa crus-galli; 0.125 kg/ha, scale 0 to 100): 100%; pest or weed control at 250 g/ha (Echinocloa crus-galli; 0.25 kg/ha, scale 0 to 100): 100%; Herbicidal activity (Setaria faberi; 0.25 kg/ha): 100; Herbicidal activity (Eriochloa villosa): 95; pest or weed control at 250 g/ha (Amaranthus retroflexus; 0.25 kg/ha, scale 0 to 100): 98%
3 | CC(C)N(c1c(Cl)ccc(C2=C(O)c3ncccc3CS2(=O)=O)c1Cl)S(C)(=O)=O [I-10, N-[2,6-dichloro-3-(8-hydroxy-6,6-dioxo-5H-thiopyrano[4,3-b]pyridin-7-yl)phenyl]-N-isopropyl-methanesulfonamide] |  |  | 10 | 85 | 90 | 100 | 98 | 10 | 10 | 15 | 85 |  |  | 70 | 98 | 
4 | CN(c1c(Cl)ccc(C2=C(O)c3ncccc3C(C)(C)S2(=O)=O)c1C(F)(F)F)S(C)(=O)=O [I-32, N-[6-chloro-3-(8-hydroxy-5,5-dimethyl-6,6-dioxo-thiopyrano[4,3-b]pyridin-7-yl)-2-(trifluoromethyl)phenyl]-N-methyl-methanesulfonamide] |  |  |  |  |  |  |  |  |  |  |  |  |  |  |  | Herbicidal activity (Erigeron canadensis; application rate 0.25 kg/ha): 100; Herbicidal activity (Zea mays; crop ZEAMX (corn, maize), application rate 0.031 kg/ha): 5; Herbicidal activity (Zea mays; crop ZEAMX (corn, maize), application rate 0.063 kg/ha): 5; Herbicidal activity (Zea mays; crop ZEAMX (corn, maize), application rate 0.125 kg/ha): 15; pest or weed control at 31 g/ha (Echinocloa crus-galli; application rate 0.031 kg/ha): 90%; pest or weed control at 63 g/ha (Echinocloa crus-galli; application rate 0.063 kg/ha): 98%; pest or weed control at 125 g/ha (Echinocloa crus-galli; application rate 0.125 kg/ha): 95%; pest or weed control at 31 g/ha (Abutilon theophrasti; application rate 0.031 kg/ha): 95%; pest or weed control at 63 g/ha (Abutilon theophrasti; application rate 0.063 kg/ha): 90%; pest or weed control at 125 g/ha (Abutilon theophrasti; application rate 0.125 kg/ha): 95%; pest or weed control at 250 g/ha (Abutilon theophrasti; application rate 0.25 kg/ha): 98%; pest or weed control at 31 g/ha (Amaranthus retroflexus; application rate 0.031 kg/ha): 98%; pest or weed control at 63 g/ha (Amaranthus retroflexus; application rate 0.063 kg/ha): 98%; pest or weed control at 125 g/ha (Amaranthus retroflexus; application rate 0.125 kg/ha): 98%; pest or weed control at 250 g/ha (Amaranthus retroflexus; application rate 0.25 kg/ha): 98%; Herbicidal activity (Oryza sativa; crop ORYSA (rice), application rate 0.25 kg/ha): 30
5 | CN(c1c(Cl)ccc(C2=C(O)c3ncccc3C(C)(C)S2(=O)=O)c1Cl)S(=O)(=O)CC1CC1 [I-21, 1-cyclopropyl-N-[2,6-dichloro-3-(8-hydroxy-5,5-dimethyl-6,6-dioxo-thiopyrano[4,3-b]pyridin-7-yl)phenyl]-N-methyl-methanesulfonamide] |  |  |  | 95 |  | 100 |  | 0 | 30 | 45 | 98 | 98 | 98 | 100 | 100 | Herbicidal activity (Erigeron canadensis; 0.063 kg/ha, scale 0 to 100): 100; Herbicidal activity (Erigeron canadensis; 0.125 kg/ha, scale 0 to 100): 100; pest or weed control at 31 g/ha (Echinocloa crus-galli; 0.031 kg/ha, scale 0 to 100): 98%; pest or weed control at 2000 g/ha (Echinocloa crus-galli): 100%; pest or weed control at 125 g/ha (Cirsium arvense; scale 0 to 100): 100%
6 | CN(c1ccc(Cl)c(C2=C(O)c3ncccc3C(C)(C)S2(=O)=O)c1Cl)S(C)(=O)=O [I-7, N-[2,4-dichloro-3-(8-hydroxy-5,5-dimethyl-6,6-dioxo-thiopyrano[4,3-b]pyridin-7-yl)phenyl]-N-methyl-methanesulfonamide] | 0 | 0 | 20 | 95 | 98 |  |  | 0 | 0 | 10 | 85 |  |  | 90 |  | Herbicidal activity (Polygonum persicaria): 80; pest or weed control at 250 g/ha (Chenopodium album; 0.25 kg/ha): 100%; pest or weed control at 250 g/ha (Abutilon theophrasti; 0.25 kg/ha, scale 0 to 100): 100%; Herbicidal activity (Stellaria media; 0.063 kg/ha): 100; Herbicidal activity (Stellaria media; 0.125 kg/ha): 100; Herbicidal activity (Stellaria media; 0.25 kg/ha): 100; Herbicidal activity (Oryza sativa; ORYSA (rice, crop), 0.25 kg/ha, scale 0 to 100): 15
7 | CCS(=O)(=O)N(C)c1c(Cl)ccc(C2=C(O)c3ncccc3C(C)(C)S2(=O)=O)c1Cl [I-19, N-[2,6-dichloro-3-(8-hydroxy-5,5-dimethyl-6,6-dioxo-thiopyrano[4,3-b]pyridin-7-yl)phenyl]-N-methyl-ethanesulfonamide] |  | 0 |  | 98 | 100 | 100 | 100 |  |  |  |  | 98 | 100 | 100 | 98 | pest or weed control at 31 g/ha (Echinocloa crus-galli; 0.031 kg/ha, scale 0 to 100): 98%; pest or weed control at 125 g/ha (Echinocloa crus-galli; 0.125 kg/ha, scale 0 to 100): 100%; Herbicidal activity (Capsella bursa-pastoris): 100; pest or weed control at 63 g/ha (Cirsium arvense; 0.063 kg/ha, scale 0 to 100, read-out: Herbicidal activity): 100%
8 | CS(=O)(=O)Nc1ccc(Cl)c(C2=C(O)c3ncccc3CS2(=O)=O)c1Cl [I-5, N-[2,4-dichloro-3-(8-hydroxy-6,6-dioxo-5H-thiopyrano[4,3-b]pyridin-7-yl)phenyl]methanesulfonamide] | 0 | 0 | 0 |  |  | 98 |  | 25 | 35 |  |  | 75 | 95 | 95 |  | Herbicidal activity (Setaria faberi; 2 kg/ha): 100; pest or weed control at 31 g/ha (Cirsium arvense; 0.031 kg/ha, scale 0 to 100): 75%; pest or weed control at 125 g/ha (Cirsium arvense; scale 0 to 100): 90%; Herbicidal activity (Digitaria sanguinalis; 0.063 kg/ha): 90; Herbicidal activity (Digitaria sanguinalis; 0.125 kg/ha): 95; Herbicidal activity (Kochia scoparia; 0.031 kg/ha): 90; Herbicidal activity (Kochia scoparia; 0.063 kg/ha): 95
